Measured values from BindingDB's records for doi:10.7270/Q2PZ576Z (The Scripps Research Institute Molecular Screening Center, 2007).
pEC50: −log10 of the molar value.

Biological target: Sphingosine 1-phosphate receptor 3 (Homo sapiens, UniProt Q99500)
Assay: S1P3 receptor activation, EC50 – cell-based, NFAT-BLA reporter, dose response (AID 439)
[1] = inactive by the depositor's call

Sequence of Sphingosine 1-phosphate receptor 3 (Q99500 whole entry): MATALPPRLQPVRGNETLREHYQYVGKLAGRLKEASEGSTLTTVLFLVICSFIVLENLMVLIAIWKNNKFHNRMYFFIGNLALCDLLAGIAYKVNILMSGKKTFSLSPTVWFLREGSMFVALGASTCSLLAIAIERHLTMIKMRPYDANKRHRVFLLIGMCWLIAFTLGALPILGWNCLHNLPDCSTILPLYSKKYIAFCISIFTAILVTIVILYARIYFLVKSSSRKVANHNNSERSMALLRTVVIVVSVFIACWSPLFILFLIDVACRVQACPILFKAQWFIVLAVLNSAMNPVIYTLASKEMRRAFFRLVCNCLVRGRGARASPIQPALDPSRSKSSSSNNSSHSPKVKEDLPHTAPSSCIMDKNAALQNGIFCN

Row | Compound | pEC50 [1] | pEC50
1 | Nc1c(C(=O)NC2CCCC2)c2nc3ccccc3nc2n1CC1CCCO1 (stereo not given) [MLS000080255] | 4.83 | –
2 | Cc1cccc2cc3c(NC(=O)c4ccccn4)nn(C)c3nc12 [MLS000082760] | 3.90 | –
3 | Cc1cc(C(=O)N(C2CCCCC2)C2CCCCC2)no1 [MLS000087301] | – | 4.59
4 | O=C(Cc1cccs1)NCc1cn2ccccc2n1 [MLS000103862] | – | < 4.35
5 | CCCc1cc(C(=O)N(C2CCCCC2)C2CCCCC2)no1 [MLS000116372] | – | 5.57
6 | Cc1ccc(-n2c(=O)[nH]cc(C(=O)Nc3ccc4c(c3)OCCO4)c2=O)cc1C [N-(2,3-dihydro-1,4-benzodioxin-6-yl)-3-(3,4-dimethylphenyl)-2,4-bis(oxidanylidene)-1H-pyrimidine-5-carboxamide] | – | < 4.35
7 | Cc1ccc(NC(=O)CC2Nc3ccccc3NC2=O)cc1Cl (stereo not given) [N-(3-chloranyl-4-methyl-phenyl)-2-(3-oxidanylidene-2,4-dihydro-1H-quinoxalin-2-yl)ethanamide] | 4.09 | –
8 | CCC(C)c1ccc2oc(-c3ccc(NC(=O)c4nnc[nH]4)cc3)nc2c1 (stereo not given) [N-[4-(5-sec-butyl-1,3-benzoxazol-2-yl)phenyl]-1H-1,2,4-triazole-3-carboxamide] | 4.71 | –

More lines, now with the values ahead:

Row | pEC50 [1] | pEC50 | Compound
9 | – | < 4.35 | C=CCn1c(=O)c(C#N)cc2c(=O)n3ccccc3nc21 [SMR000029848]
10 | 4.53 | – | CC(C)Cn1c(N)c(C(=O)NCc2cccs2)c2nc3ccccc3nc21 [SMR000043082]
11 | – | 5.17 | Cc1cc(C)n(-c2nc(NCCO)c3c4c(sc3n2)CCCC4)n1 [SMR000046729]
12 | – | < 4.35 | Cc1ccc2nc3c(cc(C#N)c(=O)n3-c3nccs3)c(=O)n2c1 [SMR000047276]
13 | 4.19 | – | N=c1c(C(=O)NCc2ccco2)cc2c(=O)n3ccccc3nc2n1Cc1ccc(Cl)cc1 [SMR000047818]
14 | 4.51 | – | Cc1onc(-c2c(Cl)cccc2Cl)c1C(=O)N1CCc2ccccc21 [[3-(2,6-dichlorophenyl)-5-methyl-1,2-oxazol-4-yl]-(2,3-dihydroindol-1-yl)methanone]
15 | – | 5.14 | CCOC(=O)c1cc2ccc(OC(=O)c3ccco3)cc2oc1=O [ethyl 7-(2-furoyloxy)-2-oxo-2H-chromene-3-carboxylate]
